Read-outs that look alike come from different tables or passages of the source.
Tests used:
[1] = tested on: hiPSC-derived neurons co-cultured with human primary astrocytes in 3D; assay: Ca2+ transient oscillation assay (FDSS), 3D spheroids; type: cell-based; settings: 60 min
In short: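 Fura-2 fluorescence was read twice for 20 min each: a baseline 10 min after 0.04% DMSO, and again 60 min after compound addition at nominal final concentration. The 3D co-cultures (1:1 hiPSC neurons from a donor and human astrocytes, 8000 each) matured 5 weeks in BrainPhys medium after a 1-week differentiation.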

[2] = tested on: hiPSC-derived neurons co-cultured with human primary astrocytes in 2D; assay: Ca2+ transient oscillation assay (FDSS), 2D co-culture; type: cell-based; settings: for activation at 0.04 µM / activation at 0.11 µM / activation at 0.33 µM / activation at 1 µM: Homo sapiens, 1 h, 60 min
In short: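 hiPSC-derived excitatory neurons (CW50065, Quick-Neuron EX-SeV) co-cultured with human primary astrocytes at 4:1 (10,000:2500 cells per well). Cal-520-loaded cells in HBSS with 2 mM CaCl2 and 10 mM HEPES were pretreated with 0.04% DMSO.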

[3] = ref PharmaPendium, cited from earlier work
[4] = read-out: Area under the curve - 2D Mean
[5] = read-out: Peak amplitude - 2D Mean
[6] = read-out: Peak-to-peak interval - 2D Mean

## CN1CCN(C2=Nc3cc(Cl)ccc3Nc3ccccc32)CC1 [Clozapine]
[1]; 0.04 µM
  Area under the curve - 3D Mean: 150.1 % change from baseline
  Peak Number—3D Mean: 11.1 % change from baseline
  Peak amplitude - 3D Mean: 133.6 % change from baseline
  Peak width - 3D Mean: 6.2 % change from baseline
  Peak-to-peak interval - 3D Mean: 4.5 % change from baseline
[1]; 0.11 µM
  Area under the curve - 3D Mean: 153.9 % change from baseline
  Peak Number—3D Mean: −10.0 % change from baseline
  Peak amplitude - 3D Mean: 130.9 % change from baseline
  Peak width - 3D Mean: 8.6 % change from baseline
  Peak-to-peak interval - 3D Mean: 19.2 % change from baseline
[1]; 0.33 µM
  Area under the curve - 3D Mean: 163.3 % change from baseline
  Peak Number—3D Mean: −2.8 % change from baseline
  Peak amplitude - 3D Mean: 129.8 % change from baseline
  Peak width - 3D Mean: 14.0 % change from baseline
  Peak-to-peak interval - 3D Mean: 5.6 % change from baseline
[1]; 1 µM
  Area under the curve - 3D Mean: 182.8 % change from baseline
  Peak Number—3D Mean: −13.9 % change from baseline
  Peak amplitude - 3D Mean: 129.4 % change from baseline
  Peak width - 3D Mean: 22.6 % change from baseline
  Peak-to-peak interval - 3D Mean: 14.2 % change from baseline
[2]; 2D format
  effect on peak number / Ca2+ neuronal oscillations, in words: significantly increased peak number
[2]; [4]
  activation at 0.04 µM: 28.5%
  activation at 0.11 µM: 49%
  activation at 0.33 µM: 28.8%
  activation at 1 µM: 10.8%
[2]; read-out: Peak Number—2D Mean
  activation at 0.04 µM: 15.3%
  activation at 0.11 µM: 24.2%
  activation at 0.33 µM: -15%
  activation at 1 µM: -8.3%
[2]; [5]
  activation at 0.04 µM: 12.5%
  activation at 0.11 µM: 16.7%
  activation at 0.33 µM: 9.4%
  activation at 1 µM: 1%
[2]; read-out: Peak width - 2D Mean
  activation at 0.04 µM: 20.8%
  activation at 0.11 µM: 35.5%
  activation at 0.33 µM: 22.8%
  activation at 1 µM: 11%
[2]; [6]
  activation at 0.04 µM: 1.2%
  activation at 0.11 µM: -15.5%
  activation at 0.33 µM: 82%
  activation at 1 µM: 2.7%
[3]; Table 1, peak plasma concentration in men, free therapeutic Cmax
  Free Cmax: 300 nM
[3]; Table 2, highest plasma concentration in humans after the therapeutic dose
  Free Cmax: 300 nM

Reference: PMC10046961, “High-Throughput Screening Assay for Detecting Drug-Induced Changes in Synchronized Neuronal Oscillations and Potential Seizure Risk Based on Ca^2+ Fluorescence Measurements in Human Induced Pluripotent Stem Cell (hiPSC)-Derived Neuronal 2D and 3D Cultures” (Cells, 2023)
